# Test results reported in ChEMBL document CHEMBL4177563, “The medicinal chemistry of Chikungunya virus” (Bioorg Med Chem, 2017).
# Assays:
# Chikungunya virus [1] = test: Antiviral activity against Chikungunya virus 899 infected in African green monkey Vero cells by MTS assay; format: functional, organism-based; details: Chikungunya virus, 899, Vero
# Chikungunya virus [2] = test: Antiviral activity against Chikungunya virus MY/065/08/FN295485 infected in African green monkey Vero cells assessed as reduction in virus yield after 48 hrs by titration assay; format: functional, organism-based; details: MY/065/08/FN295485, Vero
# [3] = Selectivity index, ratio of CC50 for African green monkey Vero cells to IC50 for Chikungunya virus MY/065/08/FN295485; format: toxicity; details: read-out: Ratio IC50
# [4] = Cytotoxicity against African green monkey Vero cells assessed as reduction in cell viability after 18 hrs by […]; format: cell-based; details: chlorocebus sabaeus
# [5] = Selectivity index, ratio of CC50 for African green monkey Vero cells to EC50 for Chikungunya virus 899; format: toxicity; details: read-out: Ratio CC50/EC50
# [6] = Binding affinity to Chikungunya virus […]
# Chikungunya virus [7] = test: Antiviral activity against Chikungunya virus infected in African green monkey Vero cells assessed as inhibition of virus-induced cytopathogenic effect measured on day 6 to 7 post infection by MTS dye-based microscopic analysis; format: functional, organism-based; details: 144 h
# [8] = Cytotoxicity against African green monkey Vero cells assessed as reduction in cell viability measured on day 6 to 7 post infection by MTS dye-based microscopic analysis; details: chlorocebus sabaeus
# Chikungunya virus [9] = test: Antiviral activity against Chikungunya virus infected in African green monkey Vero cells after 72 hrs by MTT dye-based assay; format: functional, organism-based
# Chikungunya virus [10] = test: Antiviral activity against Chikungunya virus LR2006 OPY1 infected in BHK cells measured at 14 hrs post infection by luciferase reporter gene assay; format: functional, organism-based
# [11] = Cytotoxicity against BHK cells assessed as reduction in cell viability after 48 hrs in presence of ATP by Celltiter-Glo luminescent assay; format: cell-based, Mesocricetus auratus; details: hamster
# [12] = Selectivity index, ratio of CC50 for BHK cells to IC50 for Chikungunya virus LR2006 OPY1; format: toxicity; details: hamster, read-out: Ratio CC50/IC50
smiles,measurement,setting,value
O=c1cc(CSc2nc3ccccc3c(=O)[nH]2)c2ccc(OCc3ccccc3)cc2o1,EC50,Chikungunya virus [1],> 45.2 µM
O=c1c(O)c(-c2ccc(O)c(O)c2)oc2cc(O)ccc12 [FISETIN],IC50,Chikungunya virus [2],29.5 µM
same,selectivity ratio,[3],23
Cc1ccc2nc(SCc3cc(=O)oc4cc(OS(=O)(=O)c5ccccc5[N+](=O)[O-])ccc34)[nH]c(=O)c2c1,EC50,Chikungunya virus [1],19 µM
same,CC50 at 18 h,[4],107 µM
same,selectivity ratio,[5],5.6
O=c1c(O)c(-c2ccc(O)c(O)c2)oc2cc(O)c(O)c(O)c12 [QUERCETAGETIN],IC50,Chikungunya virus [2],25300 µM
same,selectivity ratio,[3],16.3
same,Ki,[6],0.489 µM
O=c1ccnc(SCc2cc(=O)oc3cc(O)ccc23)[nH]1,EC50,Chikungunya virus [1],> 331 µM
CC1CCCCCCCC(C)C(=O)O[C@H]2/C(=C/Cl)C=C3[C@]45OC6(c7ccccc7)O[C@H]([C@@H]4[C@@H]4O[C@]4(CO)C[C@@]32O)[C@@](O)([C@@H](O6)[C@H]5C)C(O)(COC(=O)c2ccccc2O)C1 (some centres undefined),EC50,Chikungunya virus [7],1.9 µM
same,CC50,[8],4.6 µM
O=c1cc(-c2ccc(O)cc2)oc2cc(O)cc(O)c12 [APIGENIN],IC50,Chikungunya virus [9],22.5 to 127 µM
Cc1cnc(SCc2cc(=O)oc3cc(O)ccc23)[nH]c1=O,EC50,Chikungunya virus [1],> 316 µM
OCCN1CCN(CCCN2c3ccccc3Sc3ccc(Cl)cc32)CC1 [PERPHENAZINE],IC50,Chikungunya virus [10],25.1 µM
same,CC50 at 48 h,[11],155 µM
same,selectivity ratio,[12],6.2
C=C(C)[C@@]1(Oc2ccccc2)[C@@H]2OC3(c4ccccc4)O[C@H]1[C@@H](C)[C@]1(O3)C3=CC(=C(Cl)Cl)C[C@@]3(O)C[C@@]3(Cc4ccccc4)O[C@H]3[C@@H]21,EC50,Chikungunya virus [7],2.6 µM
same,CC50,[8],93 µM
Cc1ccc(S(=O)(=O)Oc2ccc3c(CSC4=NCCC(=O)N4)cc(=O)oc3c2)cc1,EC50,Chikungunya virus [1],23.1 µM
same,CC50 at 18 h,[4],60.2 µM
same,selectivity ratio,[5],2.6
C=C(C)[C@@]1(Oc2ccccc2)[C@@H]2OC3(c4ccccc4)O[C@H]1[C@@H](C)[C@]1(O3)C3=CC(=C(Cl)Cl)[C@H](c4ccccc4)[C@@]3(O)C[C@@]3(C)O[C@H]3[C@@H]21,EC50,Chikungunya virus [7],3 µM
same,CC50,[8],23.1 µM
Cc1ccc(S(=O)(=O)Oc2ccc3c(CSc4nc5ccc(C)cc5c(=O)[nH]4)cc(=O)oc3c2)cc1,EC50,Chikungunya virus [1],26.4 µM
same,CC50 at 18 h,[4],114 µM
same,selectivity ratio,[5],4.3
O=c1ccnc(SCc2cc(=O)oc3cc(OCc4ccccc4)ccc23)[nH]1,EC50,Chikungunya virus [1],> 255 µM
O=C(O)[C@H]1O[C@@H](Oc2cc3oc(-c4ccccc4)cc(=O)c3c(O)c2O)[C@H](O)[C@@H](O)[C@@H]1O [BAICALIN],IC50,Chikungunya virus [2],7 µM
same,selectivity ratio,[3],188
same,Ki,[6],0.064 µM
Cc1cnc(SCc2cc(=O)oc3cc(OCc4ccccc4)ccc23)[nH]c1=O,EC50,Chikungunya virus [1],> 246 µM
Cc1ccc2nc(SCc3cc(=O)oc4cc(OS(=O)(=O)c5ccc([N+](=O)[O-])cc5)ccc34)[nH]c(=O)c2c1,EC50,Chikungunya virus [1],> 199 µM
CC1CCCCCCCC(C)C(=O)O[C@H]2/C(=C/Cl)C=C3[C@]45OC6(c7ccccc7)O[C@H]([C@@H]4[C@@H]4O[C@]4(CO)C[C@@]32O)[C@@](O)([C@@H](O6)[C@H]5C)C(C)(O)C1 (some centres undefined),EC50,Chikungunya virus [7],2.5 µM
same,CC50,[8],5.3 µM
O=c1cc(CSc2nc3ccccc3c(=O)[nH]2)c2ccc(OS(=O)(=O)c3ccc([N+](=O)[O-])cc3)cc2o1,EC50,Chikungunya virus [1],54.5 µM
same,CC50 at 18 h,[4],117 µM
same,selectivity ratio,[5],2.2
CC1CCCCCCCC(C)C(=O)O[C@H]2/C(=C/Cl)C=C3[C@]45OC6(c7ccccc7)O[C@H]([C@@H]4[C@@H]4O[C@]4(CO)C[C@@]32O)[C@@](O)([C@@H](O6)[C@H]5C)C(O)(COC(=O)c2ccccc2)C1 (some centres undefined),EC50,Chikungunya virus [7],3.9 µM
same,CC50,[8],10.5 µM
CN1CCC(CN2c3ccccc3Sc3ccccc32)C1 (centres undefined) [METHDILAZINE],IC50,Chikungunya virus [10],11.3 µM
same,CC50 at 48 h,[11],63.8 µM
same,selectivity ratio,[12],5.6
Cc1cnc(SCc2cc(=O)oc3cc(OCc4ccc(F)cc4)ccc23)[nH]c1=O,EC50,Chikungunya virus [1],45.1 µM
same,CC50 at 18 h,[4],104 µM
same,selectivity ratio,[5],2.3
O=c1cc(CSc2nc(O)c3ccccc3n2)c2ccc(O)cc2o1,EC50,Chikungunya virus [1],192 µM
same,CC50 at 18 h,[4],> 284 µM
same,selectivity ratio,[5],> 1.5
